Some test systems named below: NCI-H522 lung; NCI/ADR-RES ovarian; OVCAR-3 ovarian; HCT-15 colon; UACC-62 melanoma; SW-620 colon; RPMI-8226 leukemia; MDA-MB-231 breast; HOP-62 NSCLC; HCT-116 colon.
Holding throughout (test): NCI anticancer screen, dose series, 48 h

Structures are written as SMILES. Where “and” joins values, the source holds several entries; their conditions need not be identical. Equal values may be shown once.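 A five-concentration, 48-hour dose response in 96-well plates underlies each endpoint, interpolated linearly between surrounding concentrations. GI50: concentration for 50% inhibition of growth. At the TGI there is no net growth.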

Take `NC(N)=Nc1ccc(/C=C2\C=Cc3ccccc32)cc1`: the GI50 in the test with NCI-H522 lung was 2.39 µM; in the test on NCI/ADR-RES ovarian, 4.54 µM; in the test on OVCAR-3 ovarian, 3.05 µM; in the test with HCT-15 colon, 2.13 µM; in the test with UACC-62 melanoma, 2.84 µM; in the test with SW-620 colon, 1.83 µM. Also, the GI50 is 3.18 µM in the test with RPMI-8226 leukemia, 1.71 µM with MDA-MB-231 breast, 2.4 µM with HOP-62 NSCLC and 1.55 µM in the test on HCT-116 colon. For the same compound, the TGI amounted to 5.79 µM in the test on NCI-H522 lung; 18.8 µM in the test with NCI/ADR-RES ovarian; 8.93 µM in the test with OVCAR-3 ovarian; 4.55 µM with HCT-15 colon; 9.94 µM in the test with UACC-62 melanoma; 3.82 µM in the test on SW-620 colon. Moreover, the TGI turned out to be 14.4 µM in the test with RPMI-8226 leukemia, 3.83 µM in the test on MDA-MB-231 breast, 6.23 µM in the test with HOP-62 NSCLC and 2.93 µM with HCT-116 colon.

For the compound `Cc1ccccc1C(C(=O)NC1CCCCC1)N(C(=O)CNc1ccc(C#N)cc1)c1cccc(F)c1` (stereo not given), the GI50 in the test with NCI-H522 lung is 14.3 µM; in the test on NCI/ADR-RES ovarian, 26.2 µM; in the test on OVCAR-3 ovarian it was more than 63 µM; in the test with HCT-15 colon it was more than 100 µM; with UACC-62 melanoma, 18.7 µM; in the test on SW-620 colon, more than 100 µM. Besides, the GI50 was more than 100 µM with RPMI-8226 leukemia, 12.4 µM with MDA-MB-231 breast, 3.51 µM in the test with HOP-62 NSCLC and 13.6 µM in the test on HCT-116 colon. Also, the TGI in the test on NCI-H522 lung, in the test with NCI/ADR-RES ovarian, with OVCAR-3 ovarian, in the test on HCT-15 colon, in the test on UACC-62 melanoma and in the test with SW-620 colon was more than 100 µM each time. Moreover, the TGI was more than 100 µM with RPMI-8226 leukemia, 70.7 µM in the test on MDA-MB-231 breast, 14.4 µM in the test with HOP-62 NSCLC and more than 100 µM in the test on HCT-116 colon.

On to `CC(=O)OCC1OC(n2ncc(=O)[nH]c2=O)C(OC(C)=O)C1OC(C)=O` (stereo not given), for which the TGI with NCI-H522 lung, in the test on NCI/ADR-RES ovarian, in the test with OVCAR-3 ovarian, with HCT-15 colon, in the test on UACC-62 melanoma and in the test with SW-620 colon was more than 100 µM each time. For the same compound, the TGI with RPMI-8226 leukemia, with HOP-62 NSCLC and in the test with HCT-116 colon was more than 100 µM throughout.

With `O=C1CC(CC(OCc2ccccc2)C(OCc2ccccc2)C(COCc2ccccc2)OCc2ccccc2)CC(=O)N1` (stereo not given), the GI50 with NCI/ADR-RES ovarian was > 100 µM and 12.8 µM; in the test with OVCAR-3 ovarian, > 100 µM and 12.2 µM; in the test on SW-620 colon it was > 100 µM and 11.7 µM; with HOP-62 NSCLC it was > 100 µM and 26.8 µM. Moreover, the TGI in the test on NCI/ADR-RES ovarian is more than 100 µM; in the test with OVCAR-3 ovarian, > 100 µM and 44 µM; in the test with HCT-15 colon, > 100 µM and 47.2 µM; with SW-620 colon, > 100 µM and 23.9 µM; with RPMI-8226 leukemia, > 100 µM and 32.8 µM; in the test with MDA-MB-231 breast it was 23.7 µM. In addition, the TGI in the test on HOP-62 NSCLC was > 100 µM and 73.1 µM; in the test with HCT-116 colon, > 100 µM and 34.2 µM.

Take `CCOC(=O)c1cc(NS(=O)(=O)c2ccc(C)cc2)cc(C(=O)OCC)c1`: the GI50 in the test with NCI-H522 lung was 34.5 µM; in the test on NCI/ADR-RES ovarian, 23.6 µM; with OVCAR-3 ovarian, 34.5 µM; in the test with HCT-15 colon it was 39.6 µM; with UACC-62 melanoma it was 44.2 µM; in the test with SW-620 colon, more than 100 µM. Also, the GI50 in the test on RPMI-8226 leukemia is 27 µM; in the test with MDA-MB-231 breast, 34.9 µM; with HOP-62 NSCLC, 79.6 µM; with HCT-116 colon it was 39.5 µM. For the same compound, the TGI in the test with NCI-H522 lung, in the test with NCI/ADR-RES ovarian, with OVCAR-3 ovarian, with HCT-15 colon, with UACC-62 melanoma and with SW-620 colon was more than 100 µM throughout. The TGI with RPMI-8226 leukemia, in the test on MDA-MB-231 breast, with HOP-62 NSCLC and with HCT-116 colon was more than 100 µM in each case.

On to `NCCSC(c1ccccc1)(c1ccccc1)c1ccccc1`, for which the GI50 with NCI-H522 lung is 0.369 µM; with NCI/ADR-RES ovarian, 1.86 µM; in the test on OVCAR-3 ovarian, 1.52 µM; in the test with HCT-15 colon, 0.409 µM; in the test on SW-620 colon, 0.558 µM; in the test with RPMI-8226 leukemia, 1.11 µM. In addition, the values for the GI50 in the test on MDA-MB-231 breast, in the test on HOP-62 NSCLC and in the test on HCT-116 colon were 0.607 µM, 2.43 µM and 0.373 µM, respectively. Besides, the TGI was found to be 1.7 µM in the test on NCI-H522 lung; 5.71 µM in the test on NCI/ADR-RES ovarian; 6.13 µM in the test on OVCAR-3 ovarian; 1.75 µM in the test on HCT-15 colon; 2.48 µM with SW-620 colon; 4.19 µM in the test on RPMI-8226 leukemia. In addition, the TGI with MDA-MB-231 breast came to 2.33 µM; with HOP-62 NSCLC it was 14.2 µM; with HCT-116 colon, 1.49 µM.

Regarding `NC(=O)c1cc(Br)ccc1NC(=O)/C=C/c1ccccc1`, the GI50 is 0.981 µM with NCI-H522 lung; 0.887 µM in the test on OVCAR-3 ovarian; 1.38 µM with HCT-15 colon; 1.24 µM in the test with UACC-62 melanoma; 0.986 µM in the test on SW-620 colon; 3.29 µM in the test with RPMI-8226 leukemia. Besides, the GI50 is 2.87 µM with MDA-MB-231 breast, 5.47 µM in the test on HOP-62 NSCLC and 1.24 µM in the test on HCT-116 colon. For the same compound, the TGI was 22 µM with NCI-H522 lung; 4.21 µM with OVCAR-3 ovarian; more than 100 µM in the test with HCT-15 colon; more than 100 µM with UACC-62 melanoma; more than 100 µM in the test on SW-620 colon; more than 100 µM in the test on RPMI-8226 leukemia. Moreover, the TGI with MDA-MB-231 breast is more than 41.4 µM; in the test with HOP-62 NSCLC, more than 23.7 µM; in the test on HCT-116 colon it was more than 100 µM.

As to `COc1cc(CCC(=O)NC[C@@H](O)c2ccccc2)ccc1O`, the GI50 in the test on NCI-H522 lung, in the test on OVCAR-3 ovarian, in the test with HCT-15 colon, with UACC-62 melanoma, in the test with SW-620 colon and with RPMI-8226 leukemia was more than 100 µM each time. Besides, the GI50 in the test with MDA-MB-231 breast, in the test with HOP-62 NSCLC and in the test with HCT-116 colon was more than 100 µM throughout. Also, the TGI in the test with NCI-H522 lung, with OVCAR-3 ovarian, in the test on HCT-15 colon, with UACC-62 melanoma, in the test with SW-620 colon and with RPMI-8226 leukemia was more than 100 µM each time. Moreover, the TGI with MDA-MB-231 breast, with HOP-62 NSCLC and in the test on HCT-116 colon was more than 100 µM in each case.

Source of the values: PubChem BioAssay (NCI).
